In assay [1] the test system is Phospho-STAT5 (P-STAT5) levels in HEL cells (Jak2V617F). In words: Western blot of phospho-STAT5 in HEL cells. It counts as cell-based, human. To be noted: for effect on phosphorylation of STAT5 (Western blot): 0.5, 1 or 5 μM, 3 hrs; for IC50 values, WB (P-STAT5) / IC50: mean ± SD.
Assay [2] relates to HEL cells. In words: Cell proliferation assay. It counts as cell-based, human. To be noted: for effect on proliferation of HEL cells: 0.3 or 1 μM; for IC50: read-out: IC50 values, Proliferation assay.
Assay [3] deals with P-STAT5 in UKE-1 cells (Jak2V617F). In words: Western blot of phospho-STAT5 in UKE-1 cells. Particulars: 2.5 μM, 3 hrs. The format is cell-based. For orientation: Immunoblotting shows a protein as a band on a membrane.
Assay [4] relates to P-STAT5 in BA/F3-EpoR-Jak2V617F cells. In words: Western blot of phospho-STAT5 in BA/F3-EpoR-Jak2V617F cells. It counts as cell-based, murine. Particulars: 2.5 μM, 3 hrs.
For assay [5], the system named is Jak2V617F phosphorylation (P-Jak2) in HEL cells. The experiment in a line: Western blot of phospho-Jak2 in HEL cells. The format is cell-based, human. To be noted: 0.5, 1 or 5 μM, 3 hrs.
Assay [6] deals with Jak2V617F in γ2A-FRT-TI-Jak2V617F/STAT3-YFP cells. The experiment in a line: STAT3-YFP translocation assay. It counts as cell-based. Particulars: read-out: IC50 values, STAT3-YFP translocation assay.
For assay [7], the system named is HEL cells. The experiment in a line: Cell cycle analysis. The format is cell-based, human. To be noted: 500 nM CEP701, VX680, TG101209 or 100 nM AT9283.
The test system of assay [8] is phosphorylation of histone H3 (target of Aurora kinase B) in HEL cells. In words: Quantitative Western blot of phospho-histone H3 in HEL cells. Particulars: HEL cells blocked with Nocodazole; 0.25, 0.5 or 1 μM; 3 hrs. The format is cell-based, human.
The subject of assay [9] is HEL cells. The experiment in a line: Cell size determination. The format is cell-based, human. Particulars: 600 nM CEP701, TG101209, VX680 or 100 nM AT9283; 24, 48 or 72 hrs.
Assay [10] has as its system CD34+ cells of Jak2V617F-positive MPN patients. The experiment in a line: Colony forming cell. It counts as cell-based, human. Particulars: single inhibitor; 12–16 days of culture.
Assay [11] has as its system Jak2V617F in HEK-V617F-STAT-Rep. cells. In words: pSTAT-ZsGreen reporter gene assay. The format is cell-based. To be noted: for IC50: read-out: IC50 values, STAT-reporter gene assay. Background: In a reporter assay the amount or activity of a reporter protein is the signal.
In assay [12] the test system is 2C4, HCT-116 and K-562 cells. The experiment in a line: Nuclei size in cell lines not expressing Jak2V617F. The format is cell-based. To be noted: 500 nM; 48 hrs.
Assay [13] relates to phosphorylation of histone H3 in UKE-1 cells. In words: Quantitative Western blot of phospho-histone H3 in UKE-1 cells. To be noted: UKE-1 cells blocked with Nocodazole; 0.25, 0.5 or 1 μM; 3 hrs. It counts as cell-based.
In assay [14] the test system is phosphorylation of histone H3 in BA/F3-EpoR-Jak2V617F cells. The experiment in a line: Quantitative Western blot of phospho-histone H3 in BA/F3-EpoR-Jak2V617F cells. It counts as cell-based, murine. Particulars: BA/F3-EpoR-Jak2V617F cells blocked with Nocodazole; 0.25, 0.5 or 1 μM; 3 hrs.
Assay [15] has as its system γ2A-FRT-TI-Jak2V617F/STAT3-YFP cells. The experiment in a line: Nuclei size by confocal imaging and Cell Profiler. The format is cell-based. To be noted: 24 hrs; Cell Profiler.
Where [16] appears, read: Homo sapiens, HEL, read-out: IC50 values, WB (P-STAT5), HEL cells.
Setting [17] is: read-out: IC50 values, WB (P-STAT5), HEL cells.
Setting [18] is: HEK-V617F-STAT-Rep. cells, 24 hrs, mean ± SD.
[19] abbreviates: γ2A-FRT-TI-Jak2V617F/STAT3-YFP cells, mean ± SD.

The source of these data is PMC3822589 (Journal of Cellular and Molecular Medicine, 2013).

Entries after “also recorded” stand apart in the source; their conditions may differ. Where two headings read alike, the source gives them in different places.

Take `N#C/C(=C/c1ccc(O)c(O)c1)C(=O)NCc1ccccc1` [AG490]: the “effect on phosphorylation of STAT5 (Western blot)” value (“effect on phosphorylation of STAT5” below) in assay [1] (HEL cells) is reported as “did not inhibit the phosphorylation of STAT5”; in assay [3], “did not inhibit STAT5 phosphorylation”; in assay [4] it was “did not inhibit STAT5 phosphorylation”. In addition, the “IC50 values, WB (P-STAT5)” value in [1] (HEL cells) is “No inhibition”. Also, the “effect on proliferation of HEL cells” value in the assay on HEL cells [2] (72 hrs) is on record as “neither affected cell growth”. In addition, the “effect on phosphorylation of Jak2” value in [5] was “not observed”.
`O=C(Nc1c[nH]nc1-c1nc2ccc(CN3CCOCC3)cc2[nH]1)NC1CC1` [AT9283]: the “effect on phosphorylation of STAT5” value was “strongly reduced phosphorylation of STAT5” in assay [1] (HEL cells), “efficiently decreased” in assay [3] and “efficiently decreased” in assay [4]. In addition, the IC50 in assay [6] was 74 ± 38 nM. Further, the “effect on phosphorylation of Jak2” value in [5] is “increased phosphorylation of Jak2”. For the same compound, the “effect on cell cycle profile” value in the assay with HEL cells [7] is “emergence of an 8n peak”. The “effect on histone H3 phosphorylation” value in assay [8] is on record as “Reduction in histone H3 phosphorylation”. For the same compound, the “effect on HEL cell size” value in the assay on HEL cells [9] was “increased in size”.
For the compound `CCN(CCCOc1ccc2c(Nc3cc(CC(=O)Nc4cccc(F)c4)n[nH]3)ncnc2c1)CCOP(=O)(O)O` [AZD1152], the “effect on erythroid and myeloid colony growth” value in assay [10] was “same behaviour”.
As for `C[C@]12O[C@H](C[C@]1(O)CO)n1c3ccccc3c3c4c(c5c6ccccc6n2c5c31)CNC4=O` [CEP701], the “effect on phosphorylation of STAT5” value in assay [1] (HEL cells) is listed as “strongly reduced phosphorylation of STAT5”; in assay [3] it was “efficiently decreased”; in assay [4], “efficiently decreased”. The IC50 was approximately 100 nM in [1] (setting [16]); 97 ± 39 nM in assay [1] (setting [17]); 111 ± 22 nM in assay [11] (24 h); 45 ± 15 nM in [6]; 81 ± 20 nM with HEL cells [2] (Homo sapiens, HEL, 72 h). In addition, the “effect on proliferation of HEL cells” value in the assay on HEL cells [2] (72 hrs) was “reduced proliferation of HEL cells very effectively”. The “increase in nuclei size in cell lines not expressing Jak2V617F” value in assay [12] is “this effect was also clearly visible”. The “effect on phosphorylation of Jak2” value in assay [5] is on record as “increased phosphorylation of Jak2”. The “effect on cell cycle profile” value in the assay on HEL cells [7] is on record as “emergence of an 8n peak”. Besides, the “effect on histone H3 phosphorylation” value in assay [8] is given as “Reduction in histone H3 phosphorylation”; in [13], “decline of histone H3 phosphorylation”; in [14], “decline of histone H3 phosphorylation”. Besides, the “effect on HEL cell size” value with HEL cells [9] was “increased in size”. Further, the “effect on erythroid and myeloid colony growth” value in assay [10] was “erythroid and myeloid colonies were equally well suppressed”.
For the compound `CO[C@@H](C(=O)N1Cc2n[nH]c(NC(=O)c3ccc(N4CCN(C)CC4)cc3)c2C1)c1ccccc1` [Danusertib], the “effect on erythroid and myeloid colony growth” value in assay [10] was “same behaviour”.
With `CC(C)(C)c1nc2c3cc[nH]c(=O)c3c3cc(F)ccc3c2[nH]1` [JI1], the “effect on phosphorylation of STAT5” value in assay [1] (HEL cells) was “strongly reduced phosphorylation of STAT5”; in assay [3] it was “efficiently decreased”; in assay [4] it was “efficiently decreased”. Also, the IC50 was determined as 133 ± 62 nM in [1] (setting [17]); 291 ± 40 nM in assay [11] (setting [18]); 197 ± 73 nM in assay [6] (setting [19]); 506 ± 18 nM in the assay on HEL cells [2] (HEL cells, 72 hrs, mean ± SD). Also, the “effect on proliferation of HEL cells” value in the assay with HEL cells [2] (72 hrs) is recorded as “reduced proliferation of HEL cells very effectively”. For the same compound, in [15], the “concentration at which nuclei size increases” value was “did not have this effect”. The “effect on phosphorylation of Jak2” value in assay [5] is reported as “increased phosphorylation of Jak2”.
Turning to `Nc1nc(Nc2ccc(S(N)(=O)=O)cc2)nn1C(=O)c1c(F)cccc1F` [JNJ7706621], in assay [1] (HEL cells), the “effect on phosphorylation of STAT5” value was “did not inhibit the phosphorylation of STAT5” and the “IC50 values, WB (P-STAT5)” value is “No inhibition”. In addition, in the assay with HEL cells [2] (72 hrs), the “effect on proliferation of HEL cells” value is “neither affected cell growth”. Moreover, in assay [5], the “effect on phosphorylation of Jak2” value is listed as “not observed”.
For the compound `C/C(O)=C(\C#N)C(=O)Nc1cc(Br)ccc1Br` [LFM-A13], in assay [1] (HEL cells), the “effect on phosphorylation of STAT5” value is reported as “did not inhibit the phosphorylation of STAT5” and the “IC50 values, WB (P-STAT5)” value was “No inhibition”. Also, in the assay on HEL cells [2] (72 hrs), the “effect on proliferation of HEL cells” value is “neither affected cell growth”. The “effect on phosphorylation of Jak2” value in assay [5] is “not observed”.
Regarding `O=C(Nc1cccc(Cl)c1)Nc1ncc(CCNc2ncnc3ccsc23)s1` [SNS314], the “effect on erythroid and myeloid colony growth” value in assay [10] was “same behaviour”.
Regarding `CCN(CC)CCNC(=O)c1c(C)[nH]c(/C=C2\C(=O)Nc3ccc(F)cc32)c1C` [Sunitinib], the “effect on phosphorylation of STAT5” value in [1] (HEL cells) was “did not inhibit the phosphorylation of STAT5”; in [3], “did not inhibit STAT5 phosphorylation”; in [4] it was “did not inhibit STAT5 phosphorylation”. Besides, the “IC50 values, WB (P-STAT5)” value in [1] (HEL cells) is recorded as “No inhibition”. In addition, the “effect on proliferation of HEL cells” value in the assay with HEL cells [2] (72 hrs) was “moderate effect”. Moreover, the “effect on phosphorylation of Jak2” value in assay [5] is listed as “not observed”.
As for `Cc1cnc(Nc2ccc(N3CCN(C)CC3)cc2)nc1Nc1cccc(S(=O)(=O)NC(C)(C)C)c1` [TG101209], the figures for the “effect on phosphorylation of STAT5” value in assay [1] (HEL cells), in assay [3] and in [4] were “strongly reduced phosphorylation of STAT5”, “efficiently decreased” and “efficiently decreased”, respectively. The IC50 in assay [1] (setting [17]) turned out to be 92 ± 18 nM; in assay [11] (setting [18]), 156 ± 10 nM; in [6] (setting [19]), 125 ± 45 nM; with HEL cells [2] (HEL cells, 72 hrs, mean ± SD) it was 243 ± 41 nM. The “effect on proliferation of HEL cells” value in the assay with HEL cells [2] (72 hrs) is reported as “reduced proliferation of HEL cells very effectively”. For the same compound, in [15], the “concentration at which nuclei size increases” value was “did not show this effect; also recorded: did not have this effect”. In addition, the “effect on phosphorylation of Jak2” value in [5] is “increased phosphorylation of Jak2”. For the same compound, in the assay with HEL cells [7], the “effect on cell cycle profile” value is reported as “reduction in the G2/M peak intensity”. For the same compound, the “effect on histone H3 phosphorylation” value in [8] is “only very little effect”. Further, the “effect on HEL cell size” value in the assay with HEL cells [9] is given as “not observed”.
On to `Cc1cnc(Nc2ccc(OCCN3CCCC3)cc2)nc1Nc1cccc(S(=O)(=O)NC(C)(C)C)c1` [TG101348], for which the “effect on phosphorylation of STAT5” value in assay [1] (HEL cells) is “showed the same effects but were less efficient”; in [3] it was “efficiently decreased”; in assay [4], “efficiently decreased”. For the same compound, the IC50 is approximately 600 nM in [1] (setting [16]); 636 ± 203 nM in assay [1] (setting [17]); 850 ± 101 nM in [11] (24 h); 385 ± 61 nM in assay [6]; 725 ± 85 nM with HEL cells [2] (Homo sapiens, HEL, 72 h). Further, the “effect on proliferation of HEL cells” value in the assay on HEL cells [2] (72 hrs) was “showed the same effects but were less efficient”. Besides, the “concentration at which nuclei size increases” value in assay [15] is “did not have this effect”. Further, the “effect on phosphorylation of Jak2” value in [5] was “increased phosphorylation of Jak2”.
Turning to `C[C@H](NC(=O)/C(C#N)=C/c1cccc(Br)n1)c1ccccc1` [WP1066], the “effect on phosphorylation of STAT5” value in [1] (HEL cells) is “did not inhibit the phosphorylation of STAT5”; in [3], “did not inhibit STAT5 phosphorylation”; in assay [4] it was “did not inhibit STAT5 phosphorylation”. Moreover, the “IC50 values, WB (P-STAT5)” value in assay [1] (HEL cells) is reported as “No inhibition”. Further, in assay [11] (setting [18]), the “IC50 values, STAT-reporter gene assay” value is on record as “No inhibition”. Moreover, in the assay on HEL cells [2] (72 hrs), the “effect on proliferation of HEL cells” value was “moderate effect”. Further, the “effect on phosphorylation of Jak2” value in assay [5] is reported as “not observed”.
